Data from patent publication US11208388B2, “Certain chemical entities, compositions, and methods” (NeuPharma, Inc., priority 2016, dated 2021).

Assays:
[1] = target: BTK (Homo sapiens (Human), UniProt Q06187); experiment: Z'-LYTE kinase inhibition assay against BTK; assay type: biochemical; conditions: compound at 100 nM; ATP concentration at Km
Protocol: Inhibitory activities of compounds against BTK, EGFR T790M, EGFR L858R, and EGFR L858R/T790M were measured using Z′-LYTE® Method from Life Technologies as briefly described in the following.
Test Compounds are screened in […] DMSO (final) in the well. For 10 point titrations, 3-fold serial dilutions are conducted from the starting concentration. All ATP Solutions are diluted to a 4× working concentration in Kinase Buffer (50 mM HEPES pH 7.5, 0.01% BRIJ-35, 10 mM MgCl2, 1 mM EGTA). Peptide/Kinase Mixtures are diluted to a 2× working concentration in the appropriate Kinase Buffers as described below. • (i) Peptide/Kinase Mixtures for measurement of EGFR (ErbB1) L858R: • The 2×EGFR (ErbB1) L858R/Tyr 04 mixture is prepared in 50 mM HEPES pH 7.5, 0.01% BRIJ-35, 10 mM MgCl2, 4 mM MnCl2, 1 mM EGTA, 2 mM DTT. The final 10 μL Kinase Reaction consists of 0.2-1.68 ng EGFR (ErbB1) L858R and 2 μM Tyr 04 in 50 mM HEPES pH 7.5, 0.01% BRIJ-35, 10 mM MgCl2, 2 mM MnCl2, 1 mM EGTA, 1 mM DTT. After the 1 hour Kinase Reaction incubation, 5 μL of a 1:64 dilution of Development Reagent B is added. • (ii) Peptide/Kinase Mixtures for measurement of EGFR (ErbB1) T790M: The 2×EGFR (ErbB1) T790M/Tyr 04 mixture is prepared in 50 mM HEPES pH 6.5, 0.01% BRIJ-35, 10 mM MgCl2, 1 mM EGTA, 0.02% NaN3. The final 10 μL Kinase Reaction consists of 3.9-30.2 ng EGFR (ErbB1) T790M and 2 μM Tyr 04 in 50 mM HEPES pH 7.0, 0.01% BRIJ-35, 10 mM MgCl2, 1 mM EGTA, 0.01% NaN3. After the 1 hour Kinase Reaction incubation, 5 μL of a 1:64 dilution of Development Reagent B is added. • (iii) Peptide/Kinase Mixtures for measurement of EGFR (ErbB1) L858R/T790M: The 2×EGFR (ErbB1) T790M L858R/Tyr 04 mixture is prepared in 50 mM HEPES pH 6.5, 0.01% BRIJ-35, 10 mM MgCl2, 1 mM EGTA, 0.02% NaN3. The final 10 μL Kinase Reaction consists of 0.38-4.22 ng EGFR (ErbB1) T790M L858R and 2 μM Tyr 04 in 50 mM HEPES pH 7.0, 0.01% BRIJ-35, 10 mM MgCl2, 1 mM EGTA, 0.01% NaN3. After the 1 hour Kinase Reaction incubation, 5 μL of a 1:64 dilution of Development Reagent B is added. • (iv) Peptide/Kinase Mixtures for measurement of BTK: The 2×BTK/Tyr 01 mixture is prepared in 50 mM HEPES pH 7.5, 0.01% BRIJ-35, 10 mM MgCl2, 1 mM EGTA. […]
Reaction starts by 30-second shaking of mixture consisting of 2.5 μL 4× test compound, 5 μL 2× kinase reaction mixture and 2.5 μL 4×ATP Solution on Bar-coded Corning, low volume NBS, black 384-well plate (Corning Cat. #3676). […] Finally fluorescence is read by plate reader. […]
To determine IC50 of a compound against a kinase, a series of concentrations of the compound were tested for the inhibition. IC50 was calculated by plotting the concentration of compound vs the percentage of inhibition in treated wells using GraphPad Prism 5. […]

[2] = test system: OCI-LY10 cells; experiment: OCI-Ly10 cell proliferation, Alamar Blue (resazurin), 72 hours; assay type: cell-based
Protocol: OCI-Ly10 cells were cultured in Iscove's DMEM supplemented with 20% fetal bovine serum and IX penicillin/streptomycin/glutamine. The cells were maintained in T175 flasks under 5% CO2 in a 37° C. humidified incubator for 5 days prior to plating and assay.
Cells were pooled by centrifugation (200 ref, 8 minutes) and resuspended in fresh medium to a concentration of 2.00E+05 cells/ml. 200 μl of the cell suspension was added to each well (40,000 cells/well) of a black-walled 96 well plate to which 1 μl of compound (n=3 per concentration) in 100% DMSO (0.5% final concentration) was added per well. Vehicle and cell free wells were also included in the assay. The dosed cells were cultured under normal conditions for 72 hours.
Cell proliferation is measured using the dye Alamar Blue (resazurin). Resazurin is reduced to resorufin by cellular enzymes and is fluorescent (544 nm excitation, 612 nm emission). Fluorescence intensity is proportional to cell number. Resazurin was prepared in PBS to a stock concentration of 440 μM. 40 μl of the 440 μM resazurin stock solution was added 3 hours prior to the 72 hour termination of the assay. The plate was returned to normal culture conditions and fluorescence measurements were collected using a Cytation3 multimode plate reader (Biotek) at 72 hours.
The scale utilized in Table 8 is as follows: ++ less than 50 nM and + greater than 50 nM.

Sequence of BTK (Q06187 whole entry): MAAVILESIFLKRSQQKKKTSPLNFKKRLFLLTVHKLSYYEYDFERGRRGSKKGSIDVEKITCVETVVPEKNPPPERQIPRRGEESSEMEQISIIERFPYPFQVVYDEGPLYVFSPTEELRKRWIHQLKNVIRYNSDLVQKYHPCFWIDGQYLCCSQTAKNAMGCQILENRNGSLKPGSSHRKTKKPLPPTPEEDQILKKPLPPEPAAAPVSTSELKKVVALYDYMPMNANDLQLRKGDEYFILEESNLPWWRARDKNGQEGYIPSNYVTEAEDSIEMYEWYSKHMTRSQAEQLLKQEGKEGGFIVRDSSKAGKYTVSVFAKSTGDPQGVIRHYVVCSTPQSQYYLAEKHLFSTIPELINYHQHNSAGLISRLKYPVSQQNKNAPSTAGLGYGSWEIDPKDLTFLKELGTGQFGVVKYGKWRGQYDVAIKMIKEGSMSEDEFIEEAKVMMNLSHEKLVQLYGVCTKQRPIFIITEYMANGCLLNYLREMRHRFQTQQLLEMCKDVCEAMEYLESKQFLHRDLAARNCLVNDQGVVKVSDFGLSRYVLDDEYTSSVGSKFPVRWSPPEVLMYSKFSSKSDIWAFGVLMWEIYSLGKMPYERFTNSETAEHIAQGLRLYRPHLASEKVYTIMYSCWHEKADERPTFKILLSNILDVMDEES

Row | SMILES | % Inhibition against BTK [1] | IC50 [2]
1 | C=CC(=O)Nc1cccc(-c2cc(-c3ccc(C(=O)Nc4ccccc4)nc3)cc3cnc(N)nc23)c1 [Example C059, 5-(8-(3-acrylamidophenyl)-2-aminoquinazolin-6-yl)-N-phenylpicolinamide] | + (less than 50% inhibition) | –
2 | C=CC(=O)N1CCC(c2cc(-c3ccc(C(=O)Nc4cccc(F)c4)nc3)cc3cncnc23)C1 (stereo not drawn) [Example C097, 5-(8-(1-acryloylpyrrolidin-3-yl)quinazolin-6-yl)-N-(3-fluorophenyl)picolinamide] | + (less than 50% inhibition) | –
3 | C=CC(=O)Nc1cccc(-c2cc(-c3ccc(Oc4ncccc4F)cc3F)cc3cncnc23)c1 [Example C105, N-(3-(6-(2-fluoro-4-((3-fluoropyridin-2-yl)oxy)-phenyl)quinazolin-8-yl)-phenyl)acrylamide] | ++ (more than 50% inhibition) | < 50 nM
4 | C=CC(=O)Nc1cccc(-c2cc(-c3cccnc3)cc3cnc(N)nc23)c1 [Example C035, N-(3-(2-amino-6-(pyridin-3-yl)quinazolin-8-yl)phenyl)-acrylamide] | ++ (more than 50% inhibition) | > 50 nM
